Data reported in patent US6656695B2, “Biomap characterization of biologically active agents” (Bioseek, Inc., priority 2000, dated 2003).

What was measured:
HUVEC cells [1] = test: optimized inflammatory assay combination: HUVEC treated with TNF-α+IFN-γ+IL-1, readout parameters by cell-based ELISA (biomap); parameters: species or system human; details: for activity (alteration of the biomap) in the optimized assay combination: HUVEC, TNF-α+IFN-γ+IL-1, 24 hours, 10 μM NHGA, 200 μM PDTC, 9 μM PD098059, PPM-18 2 μM, AG126 25 μM, p55-Fc 50 ng/ml; for cellular toxicity: either drug alone at higher concentrations (2-fold) than PPM-18 2 μM / AG126 25 μM
Procedure: Primary human umbilical vein endothelial cells (HUVEC) are used. Other cells that may replace HUVEC in the screen include primary microvascular endothelial cells, aortic or arteriolar endothelial cells or endothelial cell lines such as EAhy926 or E6-[…]-5-2G cells or human telomerase reverse transcriptase-expressing endothelial cells (Simmons, J. Immunol., 148:267, 1992; Rhim, Carcinogenesis 19:673, 1998; Yang, J. Biol. Chem. 274:26141, 1999). 2×10^4 cells/ml are cultured to confluence in EGM-2 (Clonetics). Other media that may replace EGM-2 include EGM (Clonetics) and Ham's F12K medium supplemented with 0.1 mg/ml heparin and 0.03-0.05 mg/ml endothelial cell growth supplement (ECGS) and 10% FBS, or medium M199 (Life Technologies, Inc.) containing 20% fetal bovine serum and 2 ng/ml basic fibroblast growth factor (Jaffe, J. Clin. Invest. 52:2745, 1973; Hoshi, PNAS 81:6413, 1984). The disease environment present in chronic inflammatory diseases, such as Crohn's disease, differs from the normal condition by increased presence of multiple biologically active agents including IL-1, TNF-α, and IFN-γ (Woywodt, 1994; Kakazu, 1999). Other biologically active agents that may be increased in chronic inflammatory disease environments include IL-4, IL-6, IL-8, IL-12, IL-13, IL-18, TGFbeta, and histamine, as well as activated leukocytes and their products (Daig, 1996, Gut 38:216; Woywodt, 1994, Eur. cytokine Netw. 5:387; Kakazu, 1999 Am J. Gastroenterol. 94:2149; Pizarro, 1999, J. Immunol. 162:6829; Monteleone, 1999, J. Immunol. 163:143; […] Enteral Nutr 23:S20; Beck, 1999, […]. Bowel Dis. 5:44). Optimized assay combinations will contain at least two, and preferably three, four or more of these biologically active agents. […] After 24 hours, cultures are washed and evaluated for the presence of the parameters ICAM-1 (1), VCAM-1 (2), E-selectin (3), IL-8 (4), CD31 (5), HLA-DR (6) and MIG (7) by cell-based ELISA as described (Melrose, J. Immunol. 161:2457, 1998). For this, plates are blocked with 1% Blotto for 1 hr, and treated with primary antibodies (obtained from Pharmingen and Becton Dickinson) at 1 ng/ml for 2 hr. After washing, secondary peroxidase-conjugated anti-mouse IgG antibody (Promega) at 1:2500 is applied for 45 min. After washing, TMB substrate (Kierkegaard & Perry) is added and color developed. Development is stopped by addition of H2SO4 and the absorbance at 450 nm (subtracting the background absorbance at 600 nm) is read with a Molecular Dynamics plate reader. The relative expression levels of each parameter are indicated by the OD at 450 nm shown along the y-axis. The mean +/- SD from triplicate samples is shown. […] Confluent cultures of HUVEC cells are treated with TNF-α (5 ng/ml)+IFN-γ (100 ng/ml)+IL-1 (1 ng/ml) in the presence or absence of neutralizing anti-TNF-α or control antibody (Goat anti-IgG). […] In FIG. 3A, the relative expression of each parameter is shown along the y-axis as average value of the OD measured at 450 nm of triplicate samples. The mean +/- SD from triplicate samples are shown. * indicates p<0.05 comparing results obtained with anti-TNF-α to the control. […] A color-coded representation of the biomaps developed from the data is shown. […] J. Physiol. 273(2 Pt 2):[…], 1997), the corticosteroids dexamethasone and prednisolone, echinacea, AA861 (Lee, J. Immunol. 158, 3401, 1997), apigenin ([…], Am. J. Pathol. 147:278, 1995), nordihydroguaiaretic acid (NHGA) (Brennen, Biochem. […] J. Immunol. 27:2172, 1997), pyrrolidine dithiocarbamate (PDTC) (Boyle, Circulation, 98, (19 Suppl):11282, 1998), PPM-18 (Yu, Biochem. […] Biol. Chem. 273:18165, 1998), AG126 (Novogrodsky, Science 264, 1319, 1994), and neutralizing anti-TNF-α antibody. Color-coded representations of the resulting biomaps are shown. Confluent cultures of HUVEC cells are treated with TNF-α (5 ng/ml)+IFN-γ (100 ng/ml)+IL-1 (1 ng/ml) in the presence or absence of agents or buffers at the concentrations indicated in Table 1. […]

HUVEC cells [2] = test: multiplex (secondary) assay combinations: HUVEC with single pathway activators or media, biomaps by cell-based ELISA; parameters: species or system human; details: TNF-α, IFN-γ, IL-1 alone or combined; 20 μM AA861, 10 μM NHGA; FIG. 5
Procedure: Confluent cultures of HUVEC cells are treated with TNF-α (5 ng/ml), IFN-γ (100 ng/ml), IL-1 (20 ng/ml), the combination of TNF-α+IFN-γ+IL-1, or media (no cytokine) in the presence or absence of neutralizing anti-TNF-α, 20 μM AA861 or 10 μM NHGA. After 24 hours, cultures are washed and evaluated for the cell surface expression of ICAM-1 (1), VCAM-1 (2), E-selectin (3), IL-8 (4), and MIG (5) by cell-based ELISA performed as described in FIG. 1. A color-coded representation of the resulting biomaps derived from the data is shown in FIG. 5, coded as described in FIG. 2B.
Confirmation is performed by evaluating the test agent in assay combinations that include both physiologic and alternative pathway activators. […] After 24 hours, cultures are washed and evaluated for the cell surface expression of ICAM-1 (1), VCAM-1 (2), E-selectin (3), CD31 (4), and MIG (5) by cell-based ELISA performed as described in FIG. 1. […]
In FIG. 7B, confluent cultures of HUVEC cells are treated with TNF-α (5 ng/ml), IFN-γ (100 ng/ml), IL-1 (20 ng/ml), the combination of TNF-α+IFN-γ+IL-1, or media in the presence or absence of p55-Fc. After 24 hours, cultures are washed and evaluated for the cell surface expression of ICAM-1 (1), VCAM-1 (2), E-selectin (3), IL-8 (4), and MIG (5) by cell-based ELISA performed as described in FIG. 1. […]

SMILES	activity (alteration of the biomap) in the optimized assay combination (HUVEC cells [1])	cellular toxicity (HUVEC cells [1])	cytokine signaling pathways targeted (HUVEC cells [2])
N#CC(C#N)=Cc1ccc([N+](=O)[O-])c(O)c1 [AG126]	active compounds	cellular toxicity	
O=C(NC1=CC(=O)c2ccccc2C1=O)c1ccccc1 [PPM-18]	active compounds	cellular toxicity	
COc1cccc(-c2cc(=O)c3ccccc3o2)c1N [PD098059]	altered biomaps		
CC(Cc1ccc(O)c(O)c1)C(C)Cc1ccc(O)c(O)c1 (centres unmarked) [NHGA, nordihydroguaiaretic acid]	altered biomaps		target multiple cytokine signaling pathways
S=C(S)N1CCCC1 [PDTC, pyrrolidine dithiocarbamate]	altered biomaps		
